Where a name gives a salt, the structure may show the parent alone. Numbered stars: 1 amine (or outer) side, 2 acyl side, 3 side chain; on linkers, the order of the positions; unused ones are H or OH. Bridge positions count the residues as written; N and C are the ends. Square brackets hold non-standard residues; d marks the D form. Peptide text beside a SMILES is read from it. * marks the point of attachment. pTerphenylCO(4''-OnC5H11) = CCCCCOc1ccc(-c2ccc(-c3ccc(C(=O)*)cc3)cc2)cc1; Orn(4R-OH,5R-OH) = O=C([C@H](C[C@@H](O)[C@@H](O)N[*:3])N[*:1])[*:2]; hTyr(3S-OH,4S-OH) = N[C@H](C(=O)O)[C@H](O)[C@@H](O)c1ccc(O)cc1; Pro(3S-OH,4S-Me) = C[C@H]1CN[C@H](C(=O)O)[C@H]1O; Hyp = O=C(O)[C@@H]1C[C@@H](O)CN1
Molecular target: SARS-CoV-2 Mac1 (Severe acute respiratory syndrome coronavirus 2, UniProt P0DTD1)
Test: biochemical
Settings: 100 µM; inhibitor

Row | Compound | %inhibition [%]
1 | Nc1c(Br)cc(Br)cc1CN[C@H]1CC[C@H](O)CC1 [Ambroxol HCl] | 9.799
2 | Nc1c(Br)cc(Br)cc1CN[C@H]1CC[C@H](O)CC1 [Ambroxol] | 0
3 | N=C(N)NC(=O)c1nc(Cl)c(N)nc1N [Amiloride HCl dihydrate] | 4.635
4 | N=C(N)NC(=O)c1nc(Cl)c(N)nc1N [Amiloride HCl] | 0
5 | CCOC(=O)C1=C(COCCN)NC(C)=C(C(=O)OC)C1c1ccccc1Cl (stereo not drawn) [Amlodipine Besylate] | 25.29
6 | CCN(CC)Cc1cc(Nc2ccnc3cc(Cl)ccc23)ccc1O [Amodiaquine dihydrochloride dihydrate] | 0
7 | CCN(CC)Cc1cc(Nc2ccnc3cc(Cl)ccc23)ccc1O [Amodiaquine hydrochloride] | 7.946
8 | CC1(C)S[C@@H]2[C@H](NC(=O)[C@H](N)c3ccc(O)cc3)C(=O)N2[C@H]1C(=O)O [Amoxicillin Sodium] | 14.1
9 | CC1(C)S[C@@H]2[C@H](NC(=O)[C@H](N)c3ccc(O)cc3)C(=O)N2[C@H]1C(=O)O [Amoxicillin trihydrate] | 5.69
10 | CC1(C)S[C@@H]2[C@H](NC(=O)[C@H](N)c3ccc(O)cc3)C(=O)N2[C@H]1C(=O)O [Amoxicillin] | 9.546
11 | CC1(C)S[C@@H]2[C@H](NC(=O)[C@H](N)c3ccccc3)C(=O)N2[C@H]1C(=O)O [Ampicillin Trihydrate] | 20.11
12 | CC1(C)S[C@@H]2[C@H](NC(=O)[C@H](N)c3ccccc3)C(=O)N2[C@H]1C(=O)O [Ampicillin sodium] | 0
13 | COc1ccc(C[C@@H](C)NC[C@H](O)c2ccc(O)c(NC=O)c2)cc1 [Arformoterol Tartrate] | 8.751
14 | CC1CNc2c(cccc2S(=O)(=O)N[C@@H](CCCNC(=N)N)C(=O)N2CC[C@@H](C)C[C@@H]2C(=O)O)C1 (stereo partly drawn) [Argatroban Monohydrate] | 0
15 | CC1CNc2c(cccc2S(=O)(=O)N[C@@H](CCCNC(=N)N)C(=O)N2CC[C@@H](C)C[C@@H]2C(=O)O)C1 (stereo partly drawn) [Argatroban] | 4.667

Same assay, conditions: read-out: %inhibition

Row | Compound | inhibition at 100 µM [%]
16 | COc1cc2nc(N(C)CCCNC(=O)C3CCCO3)nc(N)c2cc1OC (stereo not drawn) [Alfuzosin HCl] | 0
17 | C=CCc1cc(OC)c(O)c(C(=O)NCCO)c1 [Alibendol] | 15.2
18 | CC(CN(C)C)CN1c2ccccc2Sc2ccccc21 (stereo not drawn) [Alimemazine Tartrate] | 12.1
19 | COc1cc(Nc2ncc3c(n2)-c2ccc(Cl)cc2C(c2c(F)cccc2OC)=NC3)ccc1C(=O)O [Alisertib (MLN8237)] | 8.76
20 | COCCCOc1cc(C[C@@H](C[C@H](N)[C@@H](O)C[C@H](C(=O)NCC(C)(C)C(N)=O)C(C)C)C(C)C)ccc1OC [Aliskiren Hemifumarate] | 0
21 | C=CCN1CCCC1CNC(=O)c1cc2nn[nH]c2cc1OC (stereo not drawn) [Alizapride HCl] | 0
22 | C=CCNC(N)=S [Allylthiourea] | 7.98
23 | CN(C)CCc1c[nH]c2ccc(CS(=O)(=O)N3CCCC3)cc12 [Almotriptan Malate] | 9.31
24 | Cn1c(=O)cc(N2CCC[C@@H](N)C2)n(Cc2ccccc2C#N)c1=O [Alogliptin] | 12.8
25 | Cc1[nH]cnc1CN1CCc2c(c3ccccc3n2C)C1=O [Alosetron Hydrochloride] | 16.8
26 | CCOC(=O)[C@H]1O[C@@H]1C(=O)N[C@@H](CC(C)C)C(=O)NCCC(C)C [Aloxistatin] | 0
27 | CCCCC[C@H](O)/C=C/[C@H]1[C@H](O)CC(=O)[C@@H]1CCCCCCC(=O)O [Alprostadil] | 0
28 | C=CC[C@]1(O)CC[C@H]2[C@@H]3CCC4=CC(=O)CCC4=C3C=C[C@@]21C [Altrenogest] | 0
29 | CN(C)c1nc(N(C)C)nc(N(C)C)n1 [Altretamine] | 19.5
30 | Cc1c(-c2ccnn2C)cc(C(=O)NCc2ccc(S(C)(=O)=O)cn2)c(=O)n1-c1cccc(C(F)(F)F)c1 [Alvelestat (AZD9668)] | 0
31 | CCN(CCCc1ccccc1)CCCc1ccccc1 [Alverine Citrate] | 8.25
32 | C[C@H]1CN(C[C@H](Cc2ccccc2)C(=O)NCC(=O)O)CC[C@@]1(C)c1cccc(O)c1 [Alvimopan dihydrate] | 12.8
33 | NC12CC3CC(CC(C3)C1)C2 [Amantadine HCl] | 0
34 | COC(c1ccccc1)(c1ccccc1)[C@H](Oc1nc(C)cc(C)n1)C(=O)O [Ambrisentan] | 0

Row | Compound | inhibition at 100 µM [%]
35 | Cc1cccc(C)c1N(CC(=O)Nc1ccc(-c2ncon2)cc1)C(=O)C1CCS(=O)(=O)CC1 [Amenamevir] | 8.46
36 | Nc1c(CC(=O)O)cccc1C(=O)c1ccccc1 [Amfenac Sodium Monohydrate] | 4.46
37 | NCCCNCCSP(=O)(O)O [Amifostine] | 0
38 | NCC[C@H](O)C(=O)N[C@@H]1C[C@H](N)[C@@H](O[C@H]2O[C@H](CN)[C@@H](O)[C@H](O)[C@H]2O)[C@H](O)[C@H]1O[C@H]1O[C@H](CO)[C@@H](O)[C@H](N)[C@H]1O [Amikacin disulfate] | 0
39 | CCC1(c2ccc(N)cc2)CCC(=O)NC1=O (stereo not drawn) [Aminoglutethimide] | 17.3
40 | N=C(N)NN [Aminoguanidine hydrochloride] | 4.16
41 | Cn1c(=O)c2[nH]cnc2n(C)c1=O [Aminophylline] | 5.61
42 | Nc1nccs1 [Aminothiazole] | 1.18
43 | CCN1CCCC1CNC(=O)c1cc(S(=O)(=O)CC)c(N)cc1OC (stereo not drawn) [Amisulpride] | 7.08
44 | CN(C)CCC=C1c2ccccc2CCc2ccccc21 [Amitriptyline HCl] | 0
45 | CCOC(=O)C1=C(COCCN)NC(C)=C(C(=O)OC)C1c1ccccc1Cl (stereo not drawn) [Amlodipine] | 25.5
46 | CC1(C)[C@@H](O[C@H]2O[C@H](C(=O)O)[C@@H](O)[C@H](O)[C@H]2O[C@@H]2O[C@H](C(=O)O)[C@@H](O)[C@H](O)[C@H]2O)CC[C@]2(C)[C@H]3C(=O)C=C4[C@@H]5C[C@@](C)(C(=O)O)CC[C@]5(C)CC[C@@]4(C)[C@]3(C)CC[C@@H]12 [Ammonium Glycyrrhizinate] | 0
47 | CC(O)C(=O)O (stereo not drawn) [Ammonium lactate] | 16.4
48 | CN(C)CCN1C(=O)c2cccc3cc(N)cc(c23)C1=O [Amonafide] | 16.3
49 | CCC(C)(C)c1ccc(CC(C)CN2C[C@@H](C)O[C@@H](C)C2)cc1 (stereo partly drawn) [Amorolfine HCl] | 6.98
50 | C[C@@H]1[C@H](O)[C@@H](C)/C=C/C=C/C=C/C=C/C=C/C=C/C=C/[C@H](O[C@@H]2O[C@H](C)[C@@H](O)[C@H](N)[C@@H]2O)C[C@@H]2O[C@](O)(C[C@@H](O)C[C@@H](O)[C@H](O)CC[C@@H](O)C[C@@H](O)CC(=O)O[C@H]1C)C[C@H](O)[C@H]2C(=O)O [Amphotericin B] | 2.16
51 | CCOC(=O)OC(C)OC1=C(C(=O)Nc2ccccn2)N(C)S(=O)(=O)c2ccccc21 (stereo not drawn) [Ampiroxicam] | 5.86
52 | CC(C)CN(C[C@@H](O)[C@H](Cc1ccccc1)NC(=O)O[C@H]1CCOC1)S(=O)(=O)c1ccc(N)cc1 [Amprenavir] | 0
53 | CCCc1ncc(C[n+]2ccccc2C)c(N)n1 [Amprolium HCl] | 0

Row | Compound | inhibition at 100 µM [%]
54 | COc1cc(NS(C)(=O)=O)ccc1Nc1c2ccccc2nc2ccccc12 [Amsacrine hydrochloride] | 27
55 | S=C(NCc1ccc2c(c1)OCO2)N1CCN(c2ncnc3c2oc2ccccc23)CC1 [Amuvatinib (MP-470)] | 24.8
56 | O=C1CN2Cc3c(ccc(Cl)c3Cl)N=C2N1 [Anagrelide HCl] | 0
57 | CN(C)N(C)C(=O)[C@@]1(Cc2ccccc2)CCCN(C(=O)[C@@H](Cc2c[nH]c3ccccc23)NC(=O)C(C)(C)N)C1 [Anamorelin] | 1.6
58 | CC(C)(C#N)c1cc(Cn2cncn2)cc(C(C)(C)C#N)c1 [Anastrozole] | 10.3
59 | CCCCCOc1ccc(-c2ccc(-c3ccc(C(=O)N[C@H]4C[C@@H](O)[C@@H](O)NC(=O)[C@@H]5[C@@H](O)[C@@H](C)CN5C(=O)[C@H]([C@@H](C)O)NC(=O)[C@H]([C@H](O)[C@@H](O)c5ccc(O)cc5)NC(=O)[C@@H]5C[C@@H](O)CN5C(=O)[C@H]([C@@H](C)O)NC4=O)cc3)cc2)cc1 [Anidulafungin (LY303366)] ({pTerphenylCO(4''-OnC5H11)}-[Orn(4R-OH,5R-OH)]T[Hyp][hTyr(3S-OH,4S-OH)]T[Pro(3S-OH,4S-Me)]; lactam 1-C) | 6.34
60 | COc1ccc(C(=O)N2CCCC2=O)cc1 [Aniracetam] | 0
61 | COc1ccc(C2C(=O)c3ccccc3C2=O)cc1 [Anisindione] | 2.26
62 | CCCC(CCC)C(=O)O[C@H]1C[C@H]2CC[C@@H](C1)[N+]2(C)C [Anisotropine Methylbromide] | 5.8
63 | Cc1cc(=O)n(-c2ccccc2)n1C [Antipyrine] | 8.75
64 | N#CC1(c2ccc(NC(=O)c3cccnc3NCc3ccncc3)cc2)CCCC1 [Apatinib?mesylate] | 0
65 | COc1ccc(-n2nc(C(N)=O)c3c2C(=O)N(c2ccc(N4CCCCC4=O)cc2)CC3)cc1 [Apixaban] | 0
66 | CCOc1cc([C@@H](CS(C)(=O)=O)N2C(=O)c3cccc(NC(C)=O)c3C2=O)ccc1OC [Apremilast (CC-10004)] | 0
67 | C[C@@H](O[C@H]1OCCN(Cc2n[nH]c(=O)[nH]2)[C@H]1c1ccc(F)cc1)c1cc(C(F)(F)F)cc(C(F)(F)F)c1 [Aprepitant] | 10.1
68 | COC(=O)C1=CCCN(C)C1 [Arecoline HBr] | 3.01
69 | CO[C@H]1O[C@@H]2O[C@@]3(C)CC[C@H]4[C@H](C)CC[C@@H]([C@H]1C)[C@@]24OO3 [Artemether] | 0
70 | C[C@@H]1CC[C@H]2[C@@H](C)C(=O)O[C@@H]3O[C@@]4(C)CC[C@@H]1[C@]32OO4 [Artemisinin] | 10.9
71 | C[C@H]1[C@H](OC(=O)CCC(=O)O)O[C@@H]2O[C@@]3(C)CC[C@H]4[C@H](C)CC[C@@H]1[C@@]24OO3 [Artesunate] | 0
72 | CCCNC(C)C(=O)Nc1c(C)csc1C(=O)OC (stereo not drawn) [Articaine HCl] | 0
